What is called IC50 is the concentration at which inhibition is half-maximal.

Assay [1] addresses T1, Recombinant (1-346) HPK1 (h) (Homo sapiens, UniProt Q92918).
T1 construct: Recombinant (1-346) HPK1 (h) is incubated with 8 mM MOPS pH 7.0
T1 sequence (Q92918 1-346): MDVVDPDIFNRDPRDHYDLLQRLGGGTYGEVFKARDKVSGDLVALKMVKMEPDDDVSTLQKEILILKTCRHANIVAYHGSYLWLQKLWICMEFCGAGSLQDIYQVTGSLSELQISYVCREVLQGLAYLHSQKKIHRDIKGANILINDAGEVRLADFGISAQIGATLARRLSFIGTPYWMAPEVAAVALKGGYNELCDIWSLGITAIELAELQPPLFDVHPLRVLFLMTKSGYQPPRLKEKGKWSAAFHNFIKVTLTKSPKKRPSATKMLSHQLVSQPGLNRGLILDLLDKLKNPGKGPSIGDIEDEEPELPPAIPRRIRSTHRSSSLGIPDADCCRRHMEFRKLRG
The experiment in a line: HPK1 Human STE Kinase Enzymatic Radiometric Assay. It is filed as biochemical. Particulars: read-out: HPK1 IC50 nM Range*. Here is the method:
A stock solution of 10 mM of test compound is prepared in DMSO. The compound plate was prepared by 3-fold and 9-point serial dilutions. […] The reaction is initiated by The addition of the Mg/ATP mix. After incubation for 40 minutes at RT, the reaction is stopped by the addition of phosphoric acid to a concentration of 0.5%.

For assay [2], the target named is Lck (h) (Homo sapiens, UniProt P06239). The experiment in a line: Lck Human  Kinase Enzymatic Radiometric Assay. Type of assay: biochemical. To be noted: read-out: Lck IC50 nM Range*. The essentials: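 Substrate 33P-incorporation measured by scintillation counting after spotting on P30 filtermat and phosphoric acid washes. Human Lck reacted 40 min at RT in 50 mM Tris pH 7.5 with 10 mM MgAcetate, [gamma-33P]-ATP, 250 uM Cdc2 peptide, 0.1 mM EGTA and 0.1 mM Na3VO4.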

Some results are limits rather than exact numbers.

Lck (h), sequence (P06239 whole entry): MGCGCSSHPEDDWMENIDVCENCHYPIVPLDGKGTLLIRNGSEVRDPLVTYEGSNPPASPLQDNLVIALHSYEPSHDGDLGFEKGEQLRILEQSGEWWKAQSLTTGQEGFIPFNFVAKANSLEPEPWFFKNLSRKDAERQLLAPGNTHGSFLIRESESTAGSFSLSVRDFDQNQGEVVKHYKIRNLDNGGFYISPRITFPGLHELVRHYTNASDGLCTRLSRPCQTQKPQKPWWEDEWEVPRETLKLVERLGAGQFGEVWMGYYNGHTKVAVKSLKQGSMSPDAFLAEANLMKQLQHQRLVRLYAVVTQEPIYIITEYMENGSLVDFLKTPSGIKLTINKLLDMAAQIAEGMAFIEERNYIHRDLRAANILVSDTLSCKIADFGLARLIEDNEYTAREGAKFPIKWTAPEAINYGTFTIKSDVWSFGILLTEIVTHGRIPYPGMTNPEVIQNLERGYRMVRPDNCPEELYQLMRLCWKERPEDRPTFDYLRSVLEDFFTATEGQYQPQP

As to `Nc1nc(F)c(-c2ccc(C3CCN(CC4CC4)CC3)cc2)cc1-c1cc2c(cc1F)C(=O)NCC2` [I-242, 6-(2-amino-5-(4-(1-(cyclopropylmethyl)piperidin-4-yl)phenyl)-6-fluoropyridin-3-yl)-7-fluoro-3,4-dihydroisoquinolin-1(2H)-one], the IC50 was 0.1 to 10 nM in assay [1] and above 1000 nM in assay [2].
The like results for `CC(C)N1CCN(c2ccc(-c3cc(-c4cc5c(cc4F)C(=O)NCC5)c(N)nc3F)cc2C(F)(F)F)CC1` [I-263, 6-(2-amino-6-fluoro-5-(4-(4-isopropylpiperazin-1-yl)-3-(trifluoromethyl)phenyl)pyridin-3-yl)-7-fluoro-3,4-dihydroisoquinolin-1(2H)-one] were, in that order, 0.1 to 10 nM and above 1000 nM.
For `Nc1nc(F)c(-c2ccc(OC3CCN(CC4CC4)CC3)cc2)cc1-c1ccc2c(c1)CCNC2=O` [I-322, 6-(2-amino-5-(4-((1-(cyclopropylmethyl)piperidin-4-yl)oxy)phenyl)-6-fluoropyridin-3-yl)-3,4-dihydroisoquinolin-1(2H)-one], the values for the IC50 in assay [1] and in assay [2] were 0.1 to 10 nM and above 1000 nM, respectively.
As to `CNCC1Cc2cc(-c3cc(-c4ccc(Cl)cc4)c(F)nc3N)ccc2C(=O)N1` (stereo not drawn) [I-298, 6-(2-amino-5-(4-chlorophenyl)-6-fluoropyridin-3-yl)-3-((methylamino)methyl)-3,4-dihydroisoquinolin-1(2H)-one], the IC50 in assay [1] is 11 to 100 nM; in assay [2] it was above 1000 nM.
Consider `C[C@@H](C1CC1)N1CCN(c2ccc(-c3cc(-c4cc(F)c5c(=O)[nH]ccc5c4)c(N)nc3F)cc2)CC1` [I-393, (S)-6-(2-amino-5-(4-(4-(1-cyclopropylethyl)piperazin-1-yl)phenyl)-6-fluoropyridin-3-yl)-8-fluoroisoquinolin-1(2H)-one], for which the IC50 in assay [1] was in the range of 0.1 to 10 nM; in assay [2], 101 to 1000 nM.
Turning to `CNCC1Cc2cc(-c3cc(-c4ccc5c(c4)CCNC5=O)c(N)nc3F)ccc2C(=O)N1` (stereo not drawn) [I-276, 6-(6-amino-2-fluoro-5-(1-oxo-1,2,3,4-tetrahydroisoquinolin-6-yl)pyridin-3-yl)-3-((methylamino)methyl)-3,4-dihydroisoquinolin-1(2H)-one], the IC50 was 11 to 100 nM in assay [1] and above 1000 nM in assay [2].
The like results for `CC(C)N1CCN(c2ccc(-c3cc(-c4cnc5c(=O)[nH]ccc5c4)c(N)nc3F)cc2)CC1` [I-402, 3-(2-amino-6-fluoro-5-(4-(4-isopropylpiperazin-1-yl)phenyl)pyridin-3-yl)-1,7-naphthyridin-8(7H)-one] were, in that order, 0.1 to 10 nM and above 1000 nM.
The like results for `CC(C)N1CCC(Oc2ccc(-c3cc(-c4ccc5c(c4)CCNC5=O)c(N)nc3F)c(F)c2F)CC1` [I-270, 6-(2-amino-5-(2,3-difluoro-4-((1-isopropylpiperidin-4-yl)oxy)phenyl)-6-fluoropyridin-3-yl)-3,4-dihydroisoquinolin-1(2H)-one] were, in that order, 11 to 100 nM and above 1000 nM.
`Nc1nc(F)c(-c2ccc(N3CCNCC3)cc2)cc1-c1ccc2c(c1)CCNC2=O` [I-17, 6-(2-amino-6-fluoro-5-(4-(piperazin-1-yl)phenyl)pyridin-3-yl)-3,4-dihydroisoquinolin-1(2H)-one]: the IC50 is 0.1 to 10 nM in assay [1] and above 1000 nM in assay [2].
In the case of `COCC(=O)N1C[C@H]2C[C@@]2(c2ccc(-c3cc(-c4ccc5c(c4)CCNC5=O)c(N)nc3F)cc2)C1` [I-220, 6-(2-amino-6-fluoro-5-(4-((1R,5S)-3-(2-methoxyacetyl)-3-azabicyclo[3.1.0]hexan-1-yl)phenyl)pyridin-3-yl)-3,4-dihydroisoquinolin-1(2H)-one], the IC50 in assay [1] was 0.1 to 10 nM; in assay [2] it was above 1000 nM.
With `COCCN1CCC(Oc2ccc(-c3cc(-c4ccc5c(c4)CCNC5=O)c(N)nc3F)cc2F)CC1` [I-269, 6-(2-amino-6-fluoro-5-(3-fluoro-4-((1-(2-methoxyethyl)piperidin-4-yl)oxy)phenyl)pyridin-3-yl)-3,4-dihydroisoquinolin-1(2H)-one], the values for the IC50 in assay [1] and in assay [2] were 0.1 to 10 nM and above 1000 nM, respectively.
Turning to `COCCN1C[C@@H]2C[C@]2(c2ccc(-c3cc(-c4ccc5c(c4)CCNC5=O)c(N)nc3F)cc2)C1` [I-165, 6-(2-amino-6-fluoro-5-(4-((1S,5R)-3-(2-methoxyethyl)-3-azabicyclo[3.1.0]hexan-1-yl)phenyl)pyridin-3-yl)-3,4-dihydroisoquinolin-1(2H)-one], the IC50 was 0.1 to 10 nM in assay [1] and above 1000 nM in assay [2].
`CC(C)[C@@H]1CN(c2ccc(-c3cc(-c4ccc5c(c4)CCNC5=O)c(N)nc3F)cc2)CCN1C` [I-48, (R)-6-(2-amino-6-fluoro-5-(4-(3-isopropyl-4-methylpiperazin-1-yl)phenyl)pyridin-3-yl)-3,4-dihydroisoquinolin-1(2H)-one]: the IC50 in assay [1] was 0.1 to 10 nM; in assay [2], above 1000 nM.
For `CC(C)N1C[C@@H]2C[C@]2(c2ccc(-c3cc(-c4ccc5c(c4)CCNC5=O)c(N)nc3F)cc2)C1` [I-111, 6-(2-amino-6-fluoro-5-(4-((1S,5R)-3-isopropyl-3-azabicyclo[3.1.0]hexan-1-yl)phenyl)pyridin-3-yl)-3,4-dihydroisoquinolin-1(2H)-one 2,2,2-trifluoroacetate] the same measures were 0.1 to 10 nM and above 1000 nM.
For `C[C@H](C1CC1)N1CCN(c2ccc(-c3cc(-c4cc(F)c5c(=O)[nH]ccc5c4)c(N)nc3F)cc2)CC1` [I-391, (R)-6-(2-amino-5-(4-(4-(1-cyclopropylethyl)piperazin-1-yl)phenyl)-6-fluoropyridin-3-yl)-8-fluoroisoquinolin-1(2H)-one] the same measures were 0.1 to 10 nM and 101 to 1000 nM.
Consider `Nc1nc(F)c(-c2ccc(N3CCN(CCC4CC4)CC3)cc2)cc1-c1ccc2c(=O)[nH]ccc2c1` [I-389, 6-(2-amino-5-(4-(4-(2-cyclopropylethyl)piperazin-1-yl)phenyl)-6-fluoropyridin-3-yl)isoquinolin-1(2H)-one], for which the IC50 in assay [1] is 0.1 to 10 nM; in assay [2], above 1000 nM.
On to `COc1cc(-c2cc(-c3ccc(N4CCN(C(C)C)CC4)cc3)c(F)nc2N)cc2c1C(=O)NCC2` [I-354, 6-(2-amino-6-fluoro-5-(4-(4-isopropylpiperazin-1-yl)phenyl)pyridin-3-yl)-8-methoxy-3,4-dihydroisoquinolin-1(2H)-one], for which the figures for the IC50 in assay [1] and in assay [2] were 101 to 1000 nM and 11 to 100 nM, respectively.
For `CC(C)N1CCN(c2ccc(-c3cc(-c4cc(F)c5c(c4)CCNC5=O)c(N)nc3F)cc2)CC1` [I-336, 6-(2-amino-6-fluoro-5-(4-(4-isopropylpiperazin-1-yl)phenyl)pyridin-3-yl)-8-fluoro-3,4-dihydroisoquinolin-1(2H)-one] the same measures were 0.1 to 10 nM and 101 to 1000 nM.
For `CN1CCN(c2ccc(-c3cc(-c4cc5c(cc4F)C(=O)NCC5)c(N)nc3F)c(Cl)c2)CC1` [I-252, 6-(2-amino-5-(2-chloro-4-(4-methylpiperazin-1-yl)phenyl)-6-fluoropyridin-3-yl)-7-fluoro-3,4-dihydroisoquinolin-1(2H)-one] the same measures were 0.1 to 10 nM and above 1000 nM.
For the molecule `CN1CCN(c2ccc(-c3cc(-c4ccc5c(c4)CCNC5=O)c(N)nc3F)c(Cl)c2)CC1` [I-61, 6-(2-amino-5-(2-chloro-4-(4-methylpiperazin-1-yl)phenyl)-6-fluoropyridin-3-yl)-3,4-dihydroisoquinolin-1(2H)-one], the half-maximal inhibitory concentration (IC50) in assay [1] is 0.1 to 10 nM; in assay [2], above 1000 nM.
The like results for `CC(C)N1CCC(Oc2ccc(-c3cc(-c4ccc5c(c4)CCNC5=O)c(N)nc3F)c3c2OCO3)CC1` [I-275, 6-(2-amino-6-fluoro-5-(7-((1-isopropylpiperidin-4-yl)oxy)benzo[d][1,3]dioxol-4-yl)pyridin-3-yl)-3,4-dihydroisoquinolin-1(2H)-one] were, in that order, 0.1 to 10 nM and above 1000 nM.
